Like-named read-outs stand apart in the source and are kept apart here.
Experiments:
NUDT7 = molecular target: T1, NUDT7 (Homo sapiens, UniProt P0C024); parameters: Intact protein LC/MS covalent labelling, fragments in pools of five, 200 uM each, 4 °C; conditions: 24 h, 4 °C, pool of five; 200 µM; covalent
T1 construct: residues 14-235, E. coli, pNIC28-Bsa4, N-terminal His6 tag removed by TEV, construct 26672 Da

OTUB2 (OTUB2A) = molecular target: T2, OTUB2 (OTUB2A) (Homo sapiens, UniProt Q96DC9); parameters: Intact protein LC/MS covalent labelling, fragments in pools of five, 200 uM each, 4 °C; conditions: 24 h, 4 °C, pool of five; 200 µM; covalent
T2 construct: full length residues 1-234, E. coli BL21(DE3)-R3, His tag removed by TEV, construct 27312 Da
T2 sequence (Q96DC9 1-234): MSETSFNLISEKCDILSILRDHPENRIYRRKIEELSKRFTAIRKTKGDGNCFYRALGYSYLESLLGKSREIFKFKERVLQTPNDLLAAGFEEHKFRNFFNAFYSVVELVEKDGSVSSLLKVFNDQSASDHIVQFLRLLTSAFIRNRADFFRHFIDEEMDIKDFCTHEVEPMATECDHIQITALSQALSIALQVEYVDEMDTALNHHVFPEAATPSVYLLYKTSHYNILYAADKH

PCAF = molecular target: T3, PCAF (Homo sapiens, UniProt Q92831); parameters: Intact protein LC/MS covalent labelling, fragments in pools of five, 200 uM each, 4 °C; conditions: 24 h, 4 °C, pool of five; 200 µM; covalent
T3 construct: gene KAT2B
T3 sequence (Q92831 whole entry, the tested form may be a part): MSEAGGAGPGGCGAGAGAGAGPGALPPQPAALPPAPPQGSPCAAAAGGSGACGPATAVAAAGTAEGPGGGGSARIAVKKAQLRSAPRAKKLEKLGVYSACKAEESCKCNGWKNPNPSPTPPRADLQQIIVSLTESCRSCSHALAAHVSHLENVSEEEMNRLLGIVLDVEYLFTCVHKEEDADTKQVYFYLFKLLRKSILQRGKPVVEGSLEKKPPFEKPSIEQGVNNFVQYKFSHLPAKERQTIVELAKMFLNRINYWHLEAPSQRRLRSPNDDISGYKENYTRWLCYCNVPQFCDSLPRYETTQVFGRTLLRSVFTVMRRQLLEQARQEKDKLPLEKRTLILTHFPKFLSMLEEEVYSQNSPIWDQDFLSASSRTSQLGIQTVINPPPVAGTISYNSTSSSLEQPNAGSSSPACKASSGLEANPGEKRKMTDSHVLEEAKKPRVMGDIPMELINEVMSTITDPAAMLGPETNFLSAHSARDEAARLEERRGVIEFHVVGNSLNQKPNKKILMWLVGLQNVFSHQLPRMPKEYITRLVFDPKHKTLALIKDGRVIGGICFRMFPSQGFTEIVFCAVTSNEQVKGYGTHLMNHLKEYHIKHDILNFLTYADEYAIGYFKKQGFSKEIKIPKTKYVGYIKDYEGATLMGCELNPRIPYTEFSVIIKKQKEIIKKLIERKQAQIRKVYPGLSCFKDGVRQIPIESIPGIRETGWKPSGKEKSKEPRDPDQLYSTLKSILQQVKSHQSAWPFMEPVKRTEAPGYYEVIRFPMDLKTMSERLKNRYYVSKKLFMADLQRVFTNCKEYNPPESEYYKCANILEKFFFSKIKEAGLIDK

BSA = molecular target: T4, BSA (Bos taurus, UniProt P02769); parameters: Intact protein LC/MS covalent labelling, fragments in pools of five, 200 uM each, 4 °C; conditions: 24 h, 4 °C, pool of five; 200 µM; covalent
T4 construct: gene ALB
T4 sequence (P02769 whole entry, the tested form may be a part): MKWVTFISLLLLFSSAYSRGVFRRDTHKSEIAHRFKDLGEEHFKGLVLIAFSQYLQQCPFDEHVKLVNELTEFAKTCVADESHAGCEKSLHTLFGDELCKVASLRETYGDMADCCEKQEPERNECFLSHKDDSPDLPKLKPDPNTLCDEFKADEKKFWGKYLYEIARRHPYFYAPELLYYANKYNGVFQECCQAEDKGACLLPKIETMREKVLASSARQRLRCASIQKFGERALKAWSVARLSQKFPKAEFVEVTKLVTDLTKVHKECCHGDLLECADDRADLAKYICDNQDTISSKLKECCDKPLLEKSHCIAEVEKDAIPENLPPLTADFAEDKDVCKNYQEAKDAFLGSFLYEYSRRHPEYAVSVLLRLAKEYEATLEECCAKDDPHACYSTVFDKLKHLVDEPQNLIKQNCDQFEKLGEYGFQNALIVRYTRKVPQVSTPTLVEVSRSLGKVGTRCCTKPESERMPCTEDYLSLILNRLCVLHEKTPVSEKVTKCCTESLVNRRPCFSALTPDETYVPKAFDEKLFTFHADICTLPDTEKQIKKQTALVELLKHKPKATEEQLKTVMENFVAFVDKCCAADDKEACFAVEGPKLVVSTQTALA

in vitro [1] = assay: in vitro; parameters: species or system HB2, CCD841; conditions: human, hek293 cells
in vitro [2] = assay: in vitro; parameters: species or system HB2, HEK293; conditions: human, ccd841 cells
in vitro [3] = assay: in vitro; parameters: species or system CCD841, HEK293; conditions: human, hb2 cells, read-out: HB-2 Cells Viability (%)

T1 sequence (P0C024 14-235): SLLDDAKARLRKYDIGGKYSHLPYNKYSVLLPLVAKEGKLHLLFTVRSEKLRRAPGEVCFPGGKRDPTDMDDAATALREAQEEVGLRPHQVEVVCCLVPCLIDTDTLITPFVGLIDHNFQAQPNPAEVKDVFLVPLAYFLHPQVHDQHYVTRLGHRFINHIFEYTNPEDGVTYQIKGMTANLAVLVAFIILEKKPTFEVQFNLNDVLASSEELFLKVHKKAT

SMILES	NUDT7 (NUDT7)	OTUB2 (OTUB2 (OTUB2A))	PCAF (PCAF)	BSA (BSA)	viability at 48 h, 10 µM (in vitro [1])	viability at 48 h, 10 µM (in vitro [2])	viability at 48 h, 10 µM (in vitro [3])
C=CC(=O)NC1(C2CC2)CCOCC1 [PCM-0102450]	0	0	0	0	111%	106%	96.2%
C=CC(=O)N1CCCN(C(=O)Oc2ccccc2)CC1 [PCM-0102451]	0	0	0	0	93.9%	105%	96.2%
N#Cc1c(NC(=O)CCl)sc2c1CCC2 [PCM-0102452]	0	0.07	0	0	96.6%	93.5%	87.2%
C=CC(=O)Nc1ccc(Cl)c(C#N)c1 [PCM-0102453]	0	0	0	0	59.5%	86.4%	85.7%
C=CC(=O)Nc1sc2c(c1C#N)CCCC2 [PCM-0102455]	1	0	0	0	81.4%	72.5%	64.1%
O=C(CCl)NCC(F)(F)F [PCM-0102456]	0	0	0	0	91.9%	99.4%	102%
C=CC(=O)N1CCC(S(=O)(=O)NC)C1 (stereo not shown) [PCM-0102463]	0	0	0	0	99.6%	104%	97.2%
N#CC1(NC(=O)CCl)CCCCCC1 [PCM-0102465]	0	0	0	0	43.5%	72.3%	80.7%
N#CSc1ccc(NC(=O)CCl)c(Br)c1 [PCM-0102466]	0	0	0	0	48.4%	29.3%	23.2%
O=C(CCl)N1CCN(S(=O)(=O)c2ccccc2)CC1 [PCM-0102468]	0	0.08	0	0	15%	54.9%	12.6%
O=C(CCl)NNC(=O)c1cccc(Cl)c1 [PCM-0102470]	0	0.38	0	0	94.8%	81.3%	84.7%
CC(C)n1nccc1NC(=O)CCl.Cl [PCM-0102472]	0	0	0	0	101%	107%	92.7%
CC(c1ccccc1)N(C)C(=O)CCl (stereo not shown) [PCM-0102478]	0.1	0	0	0	27.5%	60.7%	27.5%
C=CC(=O)NC1CCCN(c2cnn(C)c2)C1 (stereo not shown) [PCM-0102480]	0	0	0	0	91.8%	96.4%	99.5%
C=CC(=O)NCC1CC12CCOCC2 (stereo not shown) [PCM-0102481]	0	0	0	0	103%	110%	97%
C=CC(=O)NCc1ccon1 [PCM-0102482]	0	0	0	0	90.3%	92.9%	98.9%
